From patent EP0356325A1, “Pharmaceutical composition containing a slightly water-soluble active substance and at least a glyceride gelled by at least a cellulose polymer” (Aiache, Jean-Marc, priority 1988, dated 1990)

Assay: Doxycycline base content and epimer contents after storage (Tableau 2)
Assay type: physicochemical
Excerpt: En outre, le tableau 2 présente une comparaison des teneurs en épimères (en p. cent) de deux préparations contenant la doxycycline (sous forme hyclate), avec le principe actif ayant servi à leur formulation. La formulation testée correspond à un produit stable.

[1] = après 1 mois de conservation à 37°C (étuve sèche), p.cent of area under chromatographic peaks
[2] = après 3 mois de conservation à température ambiante, p.cent of area under chromatographic peaks

## C[C@H]1c2cccc(O)c2C(=O)C2=C(O)[C@]3(O)C(=O)C(C(N)=O)=C(O)[C@@H](N(C)C)[C@@H]3[C@@H](O)[C@@H]21 [Doxycycline hyclate, hyclate de doxycycline]
après 1 mois de conservation à 37°C (étuve sèche)
  Doxycycline base: 858,2 mg/g
[1]
  6 Epidoxycycline: 0,96 p.cent
  Déméclocycline: 1,99 p.cent
  Oxytétracycline: 0,65 p.cent
après 3 mois de conservation à température ambiante
  Doxycycline base: 899,0 mg/g
[2]
  6 Epidoxycycline: 0,30 p.cent
  Déméclocycline: 1,81 p.cent
  Oxytétracycline base: 0,43 p.cent
